Measured values reported in ChEMBL document CHEMBL4184210, “Optimization of novel monobactams with activity against carbapenem-resistant Enterobacteriaceae - Identification of LYS228” (Bioorg Med Chem Lett, 2018).
Values after ≈ are worked out from the molar mass of the structure shown. Active and inactive are the calls of the source. The calls are words filed in the database; no cut-off is given here.

How the values were obtained:
Escherichia coli [1] = assay: microbe, parasite or virus in culture
Escherichia coli [2] = assay: microbe, parasite or virus in culture; remark: listed apart in the source
[3] = AUC in dog at 10 mg/kg, iv; assay type: ADME, organism-based, Canis lupus familiaris; conditions: in vivo
[4] = AUC in rat at 10 mg/kg, iv; assay type: ADME, organism-based; conditions: in vivo
[5] = Stability assessed as assessed as Escherichia coli beta-lactamase CTX-M-15-mediated compound hydrolysis by measuring molar enthalpy of hydrolysis at 1 mM by isothermal titration calorimetry; assay type: ADME; conditions: 1000 µM
Escherichia coli [6] = assay: microbe, parasite or virus in culture; remark: listed apart in the source
[7] = Drug excretion in rat assessed as unchanged parent drug level at 10 mg/kg, iv; assay type: ADME, organism-based; conditions: in vivo, read-out: Drug excretion
Klebsiella pneumoniae = assay: Antimicrobial activity against Klebsiella pneumoniae expressing beta-lactamase NDM-1 infected in neutropenic mouse thigh infection model assessed as compound dose causing 1 log10 CFU reduction in bacterial load dosed subcutaneously every 4 hrs; assay type: functional
Escherichia coli [8] = assay: microbe, parasite or virus in culture; remark: listed apart in the source
Escherichia coli [9] = assay: microbe, parasite or virus in culture; remark: listed apart in the source
[10] = AUC in mouse at […], iv; assay type: ADME, organism-based; conditions: in vivo
[11] = Stability assessed as assessed as Escherichia coli beta-lactamase KPC-2-mediated compound hydrolysis by measuring molar enthalpy of hydrolysis at 1 mM by isothermal titration calorimetry; assay type: ADME; conditions: 1000 µM
Escherichia coli [12] = assay: microbe, parasite or virus in culture; remark: listed apart in the source
Escherichia coli [13] = assay: microbe, parasite or virus in culture; remark: listed apart in the source
Escherichia coli [14] = assay: microbe, parasite or virus in culture; remark: listed apart in the source
Escherichia coli [15] = assay: microbe, parasite or virus in culture; remark: listed apart in the source
Escherichia coli [16] = assay: microbe, parasite or virus in culture; remark: listed apart in the source
Escherichia coli [17] = assay: microbe, parasite or virus in culture; remark: listed apart in the source
Escherichia coli [18] = assay: microbe, parasite or virus in culture; remark: listed apart in the source
[19] = Drug excretion in dog assessed as unchanged parent drug level at 10 mg/kg, iv; assay type: ADME, organism-based, Canis lupus familiaris; conditions: in vivo, read-out: Drug excretion
Escherichia coli [20] = assay: microbe, parasite or virus in culture; remark: listed apart in the source
Escherichia coli [21] = assay: microbe, parasite or virus in culture; remark: listed apart in the source
Escherichia coli [22] = assay: microbe, parasite or virus in culture; remark: listed apart in the source
Escherichia coli [23] = assay: microbe, parasite or virus in culture; remark: listed apart in the source
Escherichia coli [24] = assay: microbe, parasite or virus in culture; remark: listed apart in the source
Beta-lactamase SHV-12 = target: T1, Beta-lactamase SHV-12 (Escherichia coli, UniProt Q7X574); assay: Stability assessed as assessed as Escherichia coli beta-lactamase SHV-12-mediated compound hydrolysis by measuring molar enthalpy of hydrolysis at 1 mM by isothermal titration calorimetry; assay type: ADME; conditions: 1000 µM
T1 sequence (Q7X574 whole entry): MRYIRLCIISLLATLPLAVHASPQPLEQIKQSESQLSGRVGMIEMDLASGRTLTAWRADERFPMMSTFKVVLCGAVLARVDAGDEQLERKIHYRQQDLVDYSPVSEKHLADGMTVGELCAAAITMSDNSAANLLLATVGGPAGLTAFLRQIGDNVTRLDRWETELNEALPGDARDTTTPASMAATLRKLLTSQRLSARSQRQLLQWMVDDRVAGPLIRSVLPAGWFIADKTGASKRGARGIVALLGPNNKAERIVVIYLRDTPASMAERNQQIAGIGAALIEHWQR

Escherichia coli [25] = assay: microbe, parasite or virus in culture; remark: listed apart in the source

## C[C@H]1[C@H](NC(=O)/C(=N\OC(C)(C)C(=O)O)c2csc(N)n2)C(=O)N1S(=O)(=O)O [AZTREONAM]
Escherichia coli [1]
  MIC: > 1020 µg/mL
Escherichia coli [2]
  MIC: 8 µg/mL (≈ 18.4 µM)
[3]
  AUC: 13000 ng·h/mL
[4]
  AUC: 13000 ng·h/mL
[5]
  Stability: Unstable
Escherichia coli [6]
  MIC: 16 µg/mL (≈ 36.7 µM)
[7]
  dose excreted: 40%
Klebsiella pneumoniae
  Activity: inactive
Escherichia coli [8]
  MIC: 16 µg/mL (≈ 36.7 µM)
Escherichia coli [9]
  MIC: 4 µg/mL (≈ 9.19 µM)
[10]
  AUC: 5000 ng·h/mL
[11]
  Stability: Unstable
Escherichia coli [12]
  MIC: 8 µg/mL (≈ 18.4 µM)
Escherichia coli [13]
  MIC: 4 µg/mL (≈ 9.19 µM)
Escherichia coli [14]
  MIC: 1 µg/mL (≈ 2.3 µM)
Escherichia coli [15]
  MIC: 16 µg/mL (≈ 36.7 µM)
Escherichia coli [16]
  MIC: 1 µg/mL (≈ 2.3 µM)
Escherichia coli [17]
  MIC: 4 µg/mL (≈ 9.19 µM)
Escherichia coli [18]
  MIC: 8 µg/mL (≈ 18.4 µM)
[19]
  dose excreted: 53%
Escherichia coli [20]
  MIC: 128 µg/mL (≈ 294 µM)
Escherichia coli [21]
  MIC: 1 µg/mL (≈ 2.3 µM)
Escherichia coli [22]
  MIC: 1 µg/mL (≈ 2.3 µM)
Escherichia coli [23]
  MIC: 8 µg/mL (≈ 18.4 µM)
Escherichia coli [24]
  MIC: 16 µg/mL (≈ 36.7 µM)
Beta-lactamase SHV-12
  Stability: Unstable
Escherichia coli [25]
  MIC: 256 µg/mL (≈ 588 µM)
